Paper PMC6213047, “Design of Antibacterial Agents: Alkyl Dihydroxybenzoates against Xanthomonas citri subsp. citri” (International Journal of Molecular Sciences, 2018)
Values after ≈ are worked out from the molar mass of the structure shown. Where two headings read alike, the source gives them in different places.

Tests used:
[1] = tested on: X. citri subsp. citri strain 306 (IBSBF 1594); experiment: MIC by Resazurin Microtiter Assay (REMA); assay type: cell-based, Xanthomonas citri subsp. citri; settings: REMA, NYG medium, 29 °C, 12 h
Description: The antibacterial potential of carboxylic acids and their esters were compared to copper oxychloride (a commercial active often used to combat citrus canker). Minimal inhibitory concentration (MIC) values were determined by REMA assay, which measures cellular respiratory activity.
The antibacterial activity of alkyl dihydroxybenzoates and the determination of minimum inhibition concentration (MIC) were performed by the fluorimetric method Resazurin Microtiter Assay (REMA) with some modifications. An overnight culture of X. citri subsp. citri strain 306 (IBSBF 1594) was grown in 20 mL in Nitrogen Yeast Glycerol (NYG) at 29 °C in constant agitation of 180–200 rpm. After 12 h, the Xcc inoculum was dispersed in NYG medium and distributed into a 96 well microtiter plate to a final volume of 100 μL per well (10^5 CFU per well). Stock solutions of tested compounds at 10 mg mL^−1 were prepared in dimethyl sulfoxide (DMSO) and dispersed in NYG medium to obtain 1% DMSO and the final compound concentration range of 0.78–100 μg mL^−1. The negative control was constituted of 100 μL culture medium. In addition, the copper oxychloride was tested as a comparison to alkyl dihydroxybenzoates and kanamycin (20 μg mL^−1), which was used as a control antibiotic. The plate was subsequently incubated at 29 °C for 12 h, and 15 μg mL^−1 freshly prepared resazurin solution in water was added to each well, and the plate was incubated for 2 h. The fluorescence was determined on a Synergy H1 (BioTek, Winooski, VT, USA) microplate reader using the excitation and emission filters at wavelengths of 530 and 590 nm respectively. After the REMA assay, the minimum bactericidal concentration (CBM) assay was performed using a 96-pin stainless steel plate replicator, accurately transferring the wells from the REMA plate to Petri dishes Petri dishes were incubated in oven B.O.D. at 29 °C for 24 to 48 h. The experiments were performed in triplicate.

[2] = tested on: HaCaT (human keratinocyte cell line); experiment: Cytotoxicity MTT assay, HaCaT; assay type: cell-based; settings: MTT; for IC50: 24 h treatment, read-out: IC50 HaCaT
Description: (§1) This test is based on the reduction of 3-(4,5-dimethyl-2-thiazolyl)-2,5-diphenyl-2-tetrazole bromide by viable cells, with formation of violet insoluble formazan crystals. Five cell lines were used in order to evaluate the cytotoxic effect of the compounds as a whole.
(§2) The cytotoxicity of compounds 4, 16, 28 and copper oxychloride was determined by MTT assay. The cell lines used were HaCaT (human keratinocyte cell line—CLS 300493), Huh-7.5 (human hepatoma cell line—ATCC® PTA-8561), MRC-5 (human lung fibroblast cell line—ATCC CCL-171), VERO (monkey kidney epithelial cell line—ATCC® CCL81) and ACHN (human renal adenocarcinoma cell line—ATCC® CRL1611). The cells were cultured in appropriate medium recommended by the American Type Culture Collection.
(§3) The assay was performed with the concentration of 10^4 cells for both cell lines, distributed in 96-well plates and incubated at 37 °C in a 5% CO2 controlled atmosphere oven for 24 h. After the incubation period, the cells were treated with the compounds with a range of 1.56–200 μmol L^−1 and incubated for 24 h. The supernatant was removed, then 100 μL of 3-(4,5-dimethyl-2-thiazolyl)-2,5-diphenyl-2H-tetrazolium (MTT) salt at 1 mg mL^−1 diluted in DMEM medium (Gibco Life Technologies, Gaithersburg, MD, USA) was added and incubated for 30 min. Subsequently, the MTT was removed, then 100 μL of DMSO under agitation for 5 min at 60 rpm was added. The plates were read at 570 nm in a FLUOstar Omega/BMG LABTECH plate reader, Offenburg, BW, DE. We carried out the experiments in triplicate and three independent events for statistical analysis (GraphPad Software, San Diego, CA, USA). The MTT assay is based on the tetrazolium salt (yellow-colored) reduction to formazan (purple-colored) by metabolically active cells.

[3] = tested on: Huh-7.5 (human hepatoma cell line); experiment: Cytotoxicity MTT assay, Huh-7.5; assay type: cell-based; settings: MTT; for IC50: 24 h treatment, read-out: IC50 Huh-7,5
Description: as §1, §2, §3

[4] = tested on: MRC-5 (human lung fibroblast cell line); experiment: Cytotoxicity MTT assay, MRC-5; assay type: cell-based; settings: MTT; for IC50: 24 h treatment, read-out: IC50 MRC-5
Description: as §1, §2, §3

[5] = tested on: VERO (monkey kidney epithelial cell line); experiment: Cytotoxicity MTT assay, VERO; assay type: cell-based; settings: MTT; for IC50: 24 h treatment, read-out: IC50 VERO
Description: as §1, §2, §3

[6] = tested on: ACHN (human renal adenocarcinoma cell line); experiment: Cytotoxicity MTT assay, ACHN; assay type: cell-based; settings: MTT; for IC50: 24 h treatment, read-out: IC50 ACHN
Description: as §1, §2, §3

[7] = tested on: Xanthomonas citri subsp. citri; experiment: Growth curve of Xcc (OD 600 nm); assay type: cell-based; settings: MIC and ½ MIC, 72 h
Description: According to the growth curves of the positive control (PC) and vehicle control (DMSO), it was observed that Xcc reaches the maximum growth phase in a period of 15 h. […] The early growth inhibition (lag phase), which happens in the first hours of contact (period of the first cellular divisions) can be a dynamic process. […] This can be explained because the compounds have bacteriostatic action; that is, as the time passes, the cells become able to recover and restart doubling. Another important finding is that the lag phase consists in the cell adaptation to the new medium conditions and the bacterial population is smaller in relation to the exponential phase facilitates the action of the compounds in the first hours (Figure 1).
An isolated colony of Xanthomonas citri subsp. citri was inoculated in NYG medium for 12 h at 29 °C. After this, the optical density (OD 600 nm) was measured and adjusted to ~0.1. […] Optical density reading was measured on a Synergy H1-BioTek plate reader every 30 min for 72 h. The growth curves were plotted with GraphPad Prism software. At the same time, the degradation assay was performed, solubilizing the compounds in DMSO, which were later incorporated in NYG medium. Later, we scanned the compounds to measure the absorbance values from 210 to 700 nm, and the maximum lambda value of each compound was selected after scanning. After that, punctual readings were carried out every 30 min for 72 h.

[8] = tested on: X. citri subsp. citri strain 306 (IBSBF 1594); settings: anti-Xcc, previous study ref 25; cited from earlier work
[9] = tested on: Xcc cells membrane integrity; experiment: Cellular membrane permeability of Xcc, Live/Dead BacLight kit; assay type: cell-based, Xanthomonas citri subsp. citri; settings: compounds at ¼ MIC, 15 min; nisin as positive control
Description: Membrane integrity was measured by using the commercial assay Live/Dead BacLight® bacterial viability kit (Invitrogen, Carlsbad, CA, USA). We observed cells with intact membrane in fluorescent blue (SYTO 9) and cells with disturbance or affected membrane integrity in red or pink (propidium iodide). The data analyses were plotted as the percentage of cells permeated by propidium iodide (Figure 2).
Phase contrast microscopy was used to observe changes in cell shape and signs of cell division alteration using an objective lens with a magnification of 100×. To evaluate the Xcc cells’ membrane integrity, the BacLight® kit was used. Mixtures of SYTO 9 dyes and propidium iodide (PI). SYTO 9 (blue) can stain nucleic acids in general—with intact or damaged membranes. On the other hand, PI (red) penetrates only the bacteria with damaged membranes, causing overlap in the fluorescence of SYTO 9. Therefore, using a mixture of the dyes, the bacteria with disturbed cell membranes are stained in fluorescent red and the intact cell membranes are stained in fluorescent blue. […] Cellular immobilization was performed on slides containing 1% agarose gel in 0.85% saline buffer. The slides were prepared with 1.0 mL of the agarose solution, which was dispersed in optical microscopy slides and on each slide another slide was placed so that the gel continued like a thin film and was of homogeneous height. The slides were dried at room temperature for approximately 20 min and opened at the time of use, when 10 μL of the cell suspension was deposited in the center and covered with the cover slip. The cells were visualized using the Olympus BX-61 optical microscope equipped with OrcaFlash 2.8 monochrome camera (Hamamatsu, Shizuoka, Japan). Cell Sensation software v11 (Olympus) was used to document and analyze the images.

[10] = 24 h, unit as in text for copper oxychloride

Compound | MIC [1] | MIC ([1]; read-out: MIC in μM) | IC50 [2] | IC50 [3] | IC50 [4] | IC50 [5] | IC50 [6] | IC50 HaCaT [2, 10] | IC50 Huh-7.5 [3, 10] | IC50 MRC-5 [4, 10] | IC50 VERO [5, 10] | IC50 ACHN [6, 10] | effect on Xcc growth curve [7] | MIC [8] | percentage of cells permeated by propidium iodide [9]
NC[C@H]1O[C@H](O[C@H]2[C@H](O)[C@@H](O[C@H]3O[C@H](CO)[C@@H](O)[C@H](N)[C@H]3O)[C@H](N)C[C@@H]2N)[C@H](O)[C@@H](O)[C@@H]1O [Kanamycin, kanamycin, reference compound] | 19.9 µg/mL | 40 µM | > 200 µM | > 200 µM | > 200 µM | > 200 µM | > 200 µM | – | – | – | – | – | – | – | –
[Cl-].[Cu+2].[Cu+2].[OH-].[OH-].[OH-] [copper oxychloride, reference compound] | 43.1 µg/mL | – | > 200 µM | > 200 µM | > 200 µM | > 200 µM | > 200 µM | above 200 μg mL^−1 | above 200 μg mL^−1 | above 200 μg mL^−1 | above 200 μg mL^−1 | above 200 μg mL^−1 | inactive | – | –
CCCCCCCOC(=O)c1cc(O)c(O)c(O)c1 [heptyl gallate] | – | – | – | – | – | – | – | – | – | – | – | – | – | 116 µM (≈ 31.1 µg/mL) | –
nisin [reference compound] | – | – | – | – | – | – | – | – | – | – | – | – | – | – | 79.47%
